Test [1] deals with RIF tumor cells. Kind of test: Cellular localization in RIF tumor cells with DPH counterstain. The format is cell-based. The following applies: RIF cells (FIGS. 9a and 9b). The procedure:
(§1) For investigating the difference in sites of localization between the photosensitizers with and without carbohydrate moieties, the fluorescence light microscopy experiments were performed in Molt-4 and RIF tumor cell lines. In a typical experiment, cells were imaged at 100× on an inverted fluorescence microscope (Carl Zeiss Inc. Axiovert 35.W.Germany) with a charged-coupled device camera (Dage-MTI, model 104722-02). Images were captured and processed by computer using Image-1 image processing software (Universal Imaging Corp., version 4.0, WestChester, Pa.). The photosensitizer fluorescence was assessed by using 530-585 nm excitation and 615 nm long-pass filter to measure emission while 338-378 nm excitation for DPH, and a 450 nm emission filter for emission (400 nm dichroic). […] In addition, […]1-(4-trimethylammonium)-6-phenyl-1,3,5-hexatriene (TMA-DPH), a hydrophobic fluorescent probe which interacts with living cells by instantaneous incorporation into plasma membrane and becomes fluorescent (Illinger, D., and Kuhry, J. G., The Kinetic Aspects of Intracellular Fluorescence Labeling with TMA-DPH Support the Maturation Model for Endocytosis in L929 Cells, The Journal of Cell Biology, 125:783-794, 1994), was added for the last 5 min of the incubation, cells were washed once with PBS and transferred to a microscope slide for imaging. […]

Test [2] concerns the target Gal-1 (Homo sapiens, UniProt P09382). Kind of test: Gal-1 inhibition binding, indirect ELISA (Gal-1-HRP conjugate on asialofetuin-coated wells). The procedure: Cell. Biochem., 43, 43-57, 1990) to eliminate the thiol requirement for retention of carbohydrate-binding activity. Coupling of alkylated galaptin to Horseradish peroxidase (HRP) was carried out by a two-step glutaraldehyde procedure as described by Engvall (Engvall E., Enzyme Immunoassay ELISA and EMIT, Methods in Enzymology, 70, 419-439, 1980). The galactin-peroxidase conjugate was prepared in 50% glycerol-1% BSA and stored at -20° C. until use. The binding of the Gal-1 to photosensitizers with and without the galactose moiety was measured by an indirect ELISA method as described by Chen et al. […] The microtiter wells (Dynatech Laboratories, Chantilly, Va.) were coated with 2 μg asial fetuin (Sigma) in 100 μl of 0.1M sodium carbonate, 0.2% NaN3, pH 9.6 at 37° C. for 3h. The plates were tightly covered with parafilm and stored at 4° C. for use within three weeks. The optimal dilution for Gal-1HRP conjugate was determined by checker-board titration. For studying the effect of saccharides and their conjugates, 60 μl aliquots of diluted Gal-1-HRP conjugate containing 1.4 μg of Gal-1 were mixed separately in duplicate with 60 μl dilute buffer as well as serially diluted test compounds and incubated for 1 h at 37° C. A 100 μl aliquot was transferred to the microtiter wells, which had been coated with […] Fetuin, blocked and washed. The plates were then incubated for 1 h at 37° C. followed by color development with ABTS (Kirkegaard & Perry lab. Gaithersburg, Md.) and reading at 405 nm on an ELISA reader.
A general note: An ELISA detects its analyte on a solid surface through an enzyme-linked reagent.

For test [3], the system named is RIF tumors. The experiment in a line: In vivo photosensitizing efficacy (tumor re-growth assay) in mice bearing RIF tumors. Further details: species or system C3H/HEJ mice. The following applies: 5.0 μM/kg; for in vivo PDT efficacy (in words) / mice tumor free on day 90: no free lactose; for mice tumor free on day 90: light 24 h post-injection, 6 mice/group. As to the method: Both conjugated and non-conjugated photosensitizers (1-4) were evaluated for their in vivo tumor response in C3H mice implanted with RIF tumors. In brief, C3H/HEJ mice were injected intradermally with 2×10^5 RIF cells in 30 μl HBSS w/o Ca^+2 and magnesium, into the flank and allowed to grow until they were 4-5 mm in diameter. The day before tumors were treatment size, the mice were injected with 0-5 μlmoles/kg of compounds 1-4. At 24 hours post-injection the mice were anesthetized with Ketamine and Xylazine, and restrained on plastic holders, treated with laser light from an argon pumped dye laser at 700 nm for a total fluence of 135 J/cm^2 at a fluence rate of 75 mW/cm^2. The mice (6 mice/group) were checked daily, the tumors were measured using two orthogonal measurements L and W (perpendicular to L) and the volumes were calculated using the formula V=LxW ^2/2 and recorded. Mice were considered cured if there was no palpable tumor at 90 days post PDT treatment.

Test [4] relates to Molt-4 cells. The experiment in a line: Cellular localization by fluorescence microscopy in Molt-4 cells. The format is cell-based, human. As to the method: as §1
Test [5] has as its system J774A.1 cells. The experiment in a line: Photosensitizer uptake in J774A.1 cells (fluorescence/μg protein). The format is cell-based. The conditions noted are these: 1.0 μM, 3 and 24 hrs. As to the method: In order to test the galectin-specificity of the carbohydrate conjugates, the uptake and photosensitizing efficacy of photosensitizers 1 and 4 was investigated in two cell lines; B16-F1 and J774A.1 known for low (15-20%) and high galectin-expression (80-85%) respectively 37. The cells were grown in DMEM with 10% FCS, maintained in 5% CO2, 95% air and 100% humidity. For uptake studies 1×10^6 cells were plated in 60 mm dishes. […] The cells were then gently removed from the dishes, 1.0 ml aliquots were transferred into 1 cm quartz cuvettes and their fluorescence was read on a PT1model ALBHA1 fluorimeter, at 701 nm using an excitation of wavelength of 414 nm. Protein determinations were done using Bio-rad protein assay, protein levels were determined from a standard curve. The data was represented as fluorescence/μg protein.

Test [6] relates to B16-F1 cells. Kind of test: In vitro photosensitizing efficacy in B16-F1 cells, low Gal-1 expression (MTT). It is filed as cell-based. The conditions noted are these: free lactose (100 μM). As to the method: (§2) For determining photosensitizing efficacy in B16-F1 and J774A.Cell were plated at 1×10^4 and 2×10^4 cells per well respectively in 96 well plates. After overnight incubation, compounds 1 and 4 at the same concentration (0-2 μM) were added. After further 3 hr incubation, cells were washed with PBS and irradiated with white light (0-4 joules). […] The cells were then incubated in complete media for 48 hrs and assayed for survival using the standard MTT assay.

The subject of test [7] is J774A.1 cells. The experiment in a line: In vitro photosensitizing efficacy in J774A.1 cells, high Gal-1 expression (MTT). The format is cell-based. The procedure:
as §2

“And” between values parts separate entries of the source, which are not always exact repeats. Identical values can stand only once.

Gal-1, sequence (P09382 whole entry): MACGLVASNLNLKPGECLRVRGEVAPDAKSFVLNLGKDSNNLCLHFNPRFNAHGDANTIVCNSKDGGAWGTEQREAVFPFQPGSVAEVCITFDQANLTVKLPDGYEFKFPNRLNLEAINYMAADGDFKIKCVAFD

Regarding “Mesopurpurin-18-N-methyl-(2′-butadiene)imide [1a]”, in test [1], the “cellular localization with DPH as a counterstain” value was “diffuse intracellular localization”. Also, in test [2] (at 450 μM), the “inhibition of Gal-1 binding” value was 29%. Further, in test [3], the “in vivo PDT efficacy with and without lactose administration” value was “ineffective”; the “in vivo PDT efficacy (in words)” value is “inactive in vivo”. Moreover, the cellular localization entry in test [4] (incubated for 3 hrs) is “intracellular localization”.
As usually defined, the inhibition is how much of the control response was suppressed. A lower inhibition goes with little suppression. Consider `C=C(C=CCO[C@@H]1O[C@H](CO)[C@@H](O[C@@H]2O[C@H](CO)[C@H](O)[C@H](O)[C@H]2O)[C@H](O)[C@H]1O)CN1C(=O)c2c3nc(cc4[nH]c(cc5nc(cc6[nH]c2c(c6C)C1=O)C(CC)=C5C)c(CC)c4C)C(C)C3CCC(=O)OC` (mixture of isomers) [4a, Lactose-Chlorin conjugate joined with diene linkage], for which, in test [5], the drug uptake result is reported as “increased uptake”. Also, in test [1], the “cellular localization with DPH as a counterstain” value was “intense plasma membrane fluorescence”. Moreover, in test [2], the “increase in I50 inhibition binding affinity compared to the galactose conjugate 2” value is 40 fold. Further, in test [2] (ELISA, read-out: I50, inhibition of Gal-1 binding), the IC50 is 540 nM and 500 nM. At 450 µM the inhibition in test [2] (at 450 μM) was 29%. For the same compound, the “in vivo PDT efficacy, lactose injected immediately following the drug” value in test [3] (free lactose 100-fold excess) is given as “significant decrease in PDT efficacy”. Further, the “in vivo PDT efficacy, lactose injected 1 hour prior to light treatment” value in test [3] (lactose 23 hr post-injection of the conjugate) is on record as “quite effective”. Besides, the “mice tumor free on day 90” value in test [3] is recorded as 3/6; in test [3] (listed as 4) it was “Three out of six”. Further, in test [3], the “in vivo PDT efficacy (in words)” value was “quite effective”. Further, in test [4] (lactose 100 μM), the “fluorescence in presence of free lactose” value is on record as “No fluorescence was observed”. For the same compound, the “PDT efficacy on addition of free lactose” value in test [6] and in test [7] (free lactose (100 μM)) was “almost completely inhibited” each time. In test [7] (high Gal-1 expression (80-85%), 1.0 μM), the “phototoxicity compared to photosensitizer 1a” value is “enhanced phototoxicity”.

These data come from patent publication US6849607B2, “Galectin recognized photosensitizers for photodynamic therapy” (Health Research, Inc., priority 2001, dated 2005).
